Measurements as given in paper PMC6154605, “Multi-Anti-Parasitic Activity of Arylidene Ketones and Thiazolidene Hydrazines against Trypanosoma cruzi and Leishmania spp” (Molecules : A Journal of Synthetic Chemistry and Natural …, 2017).
Where two headings read alike, the source gives them in different places. Marks after values point to notes of the source that are not given here.

Legend:
[1] = test system: J774.1 murine macrophages; conditions: read-out: IC50 ± SD Murine Macrophages, cited from earlier work
[2] = test system: L. infantum promastigotes; assay: Leishmanicidal activity on promastigotes, resazurin; format: cell-based, Leishmania infantum; conditions: for IC50: Leishmania infantum, 48 h, read-out: IC50 ± SD Promastigotes L. infantum; for SI NCTC/ L. infantum: ratio IC50 mammalian cell / IC50 parasite (promastigotes)
From the text: (§1) We initially selected compounds previously reported to have anti-T. cruzi activity from our chemical library to evaluate their leishmanicidal activity. […]. To evaluate their activity in Leishmania spp., we performed a phenotypic screening using the promastigote form of L. infantum (MHOM/FR/91/LEM-2259) and L. braziliensis ([…]) (Table 1A for the thiazolidenehydrazine derivate and Table 1B for the arylideneketones family).
(§2) A culture of L. braziliensis (MHOM/BR/75/M2904) and L. infantum (MHOM/FR/91/LEM2259V) was obtained from the Facultad de Farmacia (Universidad Complutense, Madrid, Spain). The maintenance of the strains, the form of cultivation and the isolation of the shape of the promastigote were performed following the procedures described by Roldos et al.. The promastigotes were grown at 22 °C in Schneider’s Drosophila medium supplemented with 20% FBS. The assay was performed using a modification of a previous method. Promastigotes (2 × 10^6 parasites/well) were cultivated in 96-well plastic plates. Compounds were dissolved in dimethylsulfoxide (DMSO). Different dilutions of the compounds with a final volume up to 200 µL were added. After 48 h at 26 °C, 20 µL of a 2 mM resazurin solution were added, and the oxidation-reduction was quantified at 570 and 600 nm. The solution of resazurin was prepared at 2.5 mM in phosphate buffered solution (PBS), pH 7.4, and filtered through 0.22-µm membranes prior to use. All tests were carried out in triplicate. Resazurin sodium salt was obtained from Sigma-Aldrich (St. Louis, MO, USA) and stored at 4 °C protected from light. The efficacy of each compound was estimated by calculating the IC50 values. Each antiproliferative experiment was done in duplicate, and each concentration was tested in triplicate.

[3] = test system: L. braziliensis promastigotes; assay: as above; format: cell-based, Leishmania braziliensis; conditions: for IC50: Leishmania braziliensis, 48 h, read-out: IC50 ± SD Promastigotes L. braziliensis; for SI NCTC/ L. braziliensis: ratio IC50 mammalian cell / IC50 parasite (promastigotes)
From the text: as §1, §2

[4] = biological target: T1, triosephosphate isomerase from T. cruzi (TcTIM) (Trypanosoma cruzi, UniProt P52270); assay: Inhibition of triosephosphate isomerase; conditions: read-out: Percentage of Inhibition TcTIM
Description: Expression and purification of proteins: TcTIM, LmTIM and HsTIM were expressed in Escherichia coli and purified as described in the literature [39]. […] Before use, extensive dialysis against 100 mM triethanolamine/10 mM EDTA (pH 7.4) was performed.
Enzymatic activity assays: Enzymatic activity was determined following the conversion of glyceraldehyde 3-phosphate into dihydroxyacetone phosphate. […] The reaction mixture (1 mL, pH 7.4) contained 100 mM triethanolamine, 10 mM EDTA, 0.2 mM NADH, 1 mM glyceraldehyde 3-phosphate and 0.9 units of α-glycerol phosphate dehydrogenase. The reaction was initiated by the addition of 5 ng/mL of the TcTIM.
The mixture also contained the compounds at the indicated concentrations. Compounds were dissolved in DMSO. After 2 h, 10 µL was withdrawn and added to a final volume of 100 µL of the reaction mixture for the activity assay. The inhibition assay was performed in a 96-well microplate Varioskan spectrophotometer. […] The experiments were performed in triplicate.

[5] = biological target: T2, cruzipain (Trypanosoma cruzi, UniProt P25779); assay: Inhibition of T. cruzi cruzipain; format: biochemical
Description: Cruzipain was purified to homogeneity from epimastigotes of the Tulahuen 2 strain by ConA–Sepharose affinity chromatography, as previously described. Cruzipain (2.5 μM ε = 58,285 M^−1cm^−1) was incubated in 50 mM acetate buffer pH 5.5 with 5 mM DTT, and 100 μM inhibitor were added, shaking the solution for 15 min at 27 °C. The derivatives were added as solutions in DMSO, and the controls contained the same solvent concentration. The concentration of DMSO never exceeded 1% in the reaction medium. L-leucylam-ido(4-guanidino)butane (E-64) was used as a positive control of inhibition. Then, the fluorogenic substrate Z-Phe-Arg 7-amido-4-methylcoumarin hydrochloride (Z-Phe-Arg-AMC) at 10 μM was added, and the fluorescence was measured during 10 min at intervals of 3 s (excitation at 380 nm and emission at 460 nm) using a Varioskan Flash Spectrophotometer. From the slope of the negative control, we calculated the total (100%) enzyme activity, while the slopes obtained in the presence of the compounds yielded the percentage of remaining enzyme activity. The percentage of enzyme inhibition was determined as […]. The experiments were done in duplicate.

[6] = biological target: T3, LmTIM (triosephosphate isomerase from Leishmania mexicana) (Leishmania mexicana, UniProt P48499); assay: Inhibition of triosephosphate isomerase; format: biochemical; conditions: for inhibition at 100 µM: read-out: Percentage of Inhibition LmTIM; for IC50: read-out: IC50 ± SD LmTIM
T3 construct: made in house; host or cells: Escherichia coli
Description: Compounds were dissolved in DMSO. […] The experiments were performed in triplicate.

[7] = test system: T. cruzi; conditions: 100 mg/kg body weight in mice, acute model; cited from earlier work
[8] = test system: zebrafish embryos; assay: Zebrafish embryo toxicity test (LD50)
Description: […] Only embryos that were clearly undamaged after 60 min of observation were kept and subsequently used. Dechorionated embryos were further manipulated using flame-rounded tip glass Pasteur pipettes. […] In all cases, the embryos were incubated in system water with 1% DMSO (negative control) and the compound at different doses between 8 and 96 hpf. The treatment solution was changed daily. […] At selected time points, namely 24, 48, 72 and 96 hpf, embryotoxicity (= mortality) and morphological characteristics of the embryos were evaluated using a Nikon SMZ800 stereomicroscope. The embryos were evaluated for the presence and morphological development (as appropriate) of somites, tail detachment, eyes, heart beat and blood circulation. All individuals were evaluated at all time points.

[9] = test system: NCTC929 fibroblasts; assay: Nonspecific cytotoxicity on fibroblasts, resazurin; format: cell-based; conditions: NCTC-929, 24 h; read-out: IC50 ± SD Fibroblast NCTC929
Description: To establish the selectivity of the compounds against the parasites, nonspecific cytotoxicity against mammalian cells, using J774.1 murine macrophages and fibroblast NCTC929, was studied for the most relevant derivatives. The selectivity indexes were calculated as the ratio between cytotoxicity for mammalian cells and the anti-parasitic activity (Table 2).
NCTC-Clone 929 were grown in minimal essential medium (Sigma) supplemented with 10% heat-inactivated FBS, penicillin G (100 U/mL) and streptomycin (100 µg/mL). Cell cultures were maintained at 37 °C in a humidified 5% CO2 atmosphere. The procedure for cell viability measurement was evaluated with resazurin by a colorimetric method. The cells were plated in 96 microtiter plates at 3.00 × 10^4 cells/well in 100 µL growth medium. The cells were grown overnight at 37 °C, 5% CO2. Thereafter, the medium was removed, and the compounds were added to 200 µL of medium for 24 h. After incubation, 20 µL of a 2 mM resazurin solution were added to each well. The plates were incubated for 3 h to allow optimal oxidation-reduction. The reduction of resazurin was determined by dual wavelength absorbance measurement at 490 and 595 nm. The background was subtracted. Each concentration was assayed three times. Medium and drug controls were used in each test as blanks.

[10] = test system: T. cruzi epimastigotes, Tulahuen 2 strain (genotype TcVI); assay: In vitro anti-T. cruzi activity, growth inhibition of epimastigotes; format: cell-based, Trypanosoma cruzi; conditions: ratio IC50 mammalian cell / IC50 parasite (epimastigotes)
Description: For the in vitro anti-T. cruzi activity, we used epimastigotes of the Tulahuen 2 strain (genotype TcVI) grown in an axenic milieu (BHI-Tryptose). Cells from a 5–7-day-old culture were inoculated in fresh culture milieu to give an initial concentration of 1.00 × 10^6 cells/mL. The absorbance at 600 nm of the cells in culture was measured every day. At Day 5, the milieu was inoculated with different quantities of the compounds from a stock solution in DMSO (DMSO concentration in the culture milieu never exceeded 0.4%). The control was made in the presence of 0.4% DMSO and in the absence of compounds. Each concentration of compound was evaluated in duplicate. At Day 5, the absorbance of the culture was measured and related to the control. […] Each antiproliferative experiment was done in duplicate, and each concentration was tested in triplicate.

[11] = test system: T. cruzi amastigotes; design: method as in PMID 26492824, PMID 24749923, doi:10.1039/C6RA27851E; conditions: 5 µM, 72 h; cited from earlier work
[12] = test system: T. cruzi epimastigotes, Tulahuen 2 strain (genotype TcVI); conditions: cited from earlier work; for IC50: read-out: IC50 ± SD Epimastigotes T. cruzi; for SI J774.1/ T. cruzi: ratio IC50 mammalian cell / IC50 parasite (epimastigotes)
[13] = biological target: T1, triosephosphate isomerase from T. cruzi (TcTIM); design: made in house; host or cells: Escherichia coli; conditions: cited from earlier work; for Percentage of Inhibition TcTIM: at 100 µM
[14] = biological target: T2, cruzipain; conditions: at 100 µM; cited from earlier work
[15] = test system: L. braziliensis promastigotes; design: method as in PMID 24749923; conditions: footnote c; read-out: IC50 ± SD Promastigotes L. braziliensis; cited from earlier work
[16] = test system: L. infantum promastigotes; design: method as in PMID 11913540; conditions: superscript b printed; previously reported compound; read-out: IC50 ± SD Promastigotes L. infantum; cited from earlier work

T1 sequence (P52270 whole entry): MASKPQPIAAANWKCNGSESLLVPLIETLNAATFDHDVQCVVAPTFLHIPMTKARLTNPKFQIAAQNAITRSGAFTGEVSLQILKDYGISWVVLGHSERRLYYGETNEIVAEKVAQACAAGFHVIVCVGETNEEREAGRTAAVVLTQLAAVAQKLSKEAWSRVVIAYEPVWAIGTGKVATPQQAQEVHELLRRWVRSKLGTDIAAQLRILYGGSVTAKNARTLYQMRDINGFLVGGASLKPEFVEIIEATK
T2 sequence (P25779 123-467): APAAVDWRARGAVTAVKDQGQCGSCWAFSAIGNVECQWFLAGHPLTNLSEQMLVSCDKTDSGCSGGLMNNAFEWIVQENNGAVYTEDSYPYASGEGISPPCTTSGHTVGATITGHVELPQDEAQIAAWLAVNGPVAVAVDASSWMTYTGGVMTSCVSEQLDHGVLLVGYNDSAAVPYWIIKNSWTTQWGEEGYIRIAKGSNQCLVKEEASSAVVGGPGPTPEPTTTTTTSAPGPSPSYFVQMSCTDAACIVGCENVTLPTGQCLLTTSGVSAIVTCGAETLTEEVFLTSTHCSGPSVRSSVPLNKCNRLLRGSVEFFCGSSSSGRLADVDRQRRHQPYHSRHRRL
T3 sequence (P48499 whole entry): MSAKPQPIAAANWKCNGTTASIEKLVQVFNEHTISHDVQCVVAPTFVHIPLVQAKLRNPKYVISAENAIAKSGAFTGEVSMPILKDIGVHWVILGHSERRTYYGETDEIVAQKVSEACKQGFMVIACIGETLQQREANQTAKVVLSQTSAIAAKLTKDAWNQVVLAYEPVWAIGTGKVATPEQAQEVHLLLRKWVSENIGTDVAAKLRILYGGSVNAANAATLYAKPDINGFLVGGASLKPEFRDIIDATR

SMILES | IC50 ([1]; J774.1) [µM] | IC50 [2] [µM] | SI NCTC/ L. infantum [2] | IC50 [3] [µM] | SI NCTC/ L. braziliensis [3] | inhibition at 100 µM [6] [%] | IC50 [9] [µM] | SI J774.1/ T. cruzi [10] | IC50 [12] [µM] | IC50 [6] [µM] | Percentage of Inhibition TcTIM [13] | SI J774.1/ T. cruzi [12] | Percentage of Inhibition Cruzipain [14] | IC50 [1] [µM] | other results
C=CCn1c(C(=O)N2CCN(C/C=C/c3ccccc3)CC2)cs\c1=N/N=C/C=C/c1ccco1 [HIT1] | 30 ± 5 | 4 ± 1 | 87 | 12 ± 5 | 29 | 0 | 346 ± 9 | 10 | 3.1 ± 0.2 | – | – | – | – | – | inhibition at 100 µM [4]: 0%; inhibition at 100 µM ([5]; at 100 µM, read-out: Percentage of Inhibition Cruzipain): 100%; IC50 ([5]; pool of cruzipain isoforms obtained from T. cruzi, read-out: IC50 ± SD Cruzipain): 4.3 µM; Reduction of the parasitemia [7]: 70%; LD50 without chorion ([8]; dechorionated zebrafish embryos, 72 h incubation): 61 ± 2 µM; LD50 with chorion ([8]; zebrafish embryos with chorion): > 100 µM; Amastigotes in infected Vero cell culture after treatment [11]: cytosol without amastigotes
O=C1/C(=C/C=C/c2ccco2)CCC/C1=C\C=C\c1ccco1 [HIT2] | 10 ± 2 | 13 ± 7 | 12 | 7 ± 1 | 23 | 100 | 160 ± 9 | – | 0.6 ± 0.2 | < 25 | 100 | 17 ^c | 80 | – | IC50 ([13]; read-out: IC50 ± SD TcTIM): 0.086 µM
O=C(/C=C/c1cccs1)/C=C/c1cccs1 [EA138] | 38 ± 7 | 4 ± 0.5 | 40 | 8 ± 2 | 20 | 100 | 158 ± 5 | – | 5 ± 0.8 | < 25 | 0/- ^d | 8 ^c | 50/- ^d | – | –
O=C1/C(=C/c2cccc3cnccc23)CC/C1=C\c1cccc2cnccc12 [Comp13, reference compound] | – | – | – | – | 23 | – | – | 1 | 31 ± 2 | – | – | – | – | 21 ± 5 | IC50 [15]: 0.9 ± 0.2 µM
COc1cc(/C=C/C(=O)CC(=O)/C=C/c2ccc(O)c(OC)c2)ccc1O [Curcumin, reference compound] | – | – | – | – | 2 | – | – | 2 | 5.6 ± 1 | – | – | – | – | 10 ± 2 | IC50 [16]: 5.9 ± 0.3 µM
